# According to US9782464B2, “Methods and compositions for inhibiting diseases of the central nervous system” (Board of Regents of the University of Nebraska, priority 2008, dated 2017):
# Key:
# primary microglia = assay: Flow cytometry of active caspase-3 and cathepsin B (CB) in microglia; assay type: cell-based, mouse; conditions: N-α-syn-stimulated cultures
# Procedure: Samples from cell fractions were labeled with fluorescently labeled Abs to CD4, CD8, CD25, CTLA-4, CD62L, Fas ligand (FasL), Fas (APO-1), CD1 b, and intracellular FoxP3 (eBioscience) and active caspase-3 (Abcam) and analyzed with a FACSCalibur flow cytometer (BD Biosciences). FITC-latex beads ([…], 2.5% solids; Sigma-Aldrich) were added to microglial cultures for 30 minutes. Microglia were then detached and acid-washed (PBS, pH 6.0) to quench fluorescence of nonphagocytosed beads, and cells were analyzed by flow cytometry and gated to CD11b+ cells. Fluorescence intensity was normalized to beads alone.
# Apoptotic cells were detected using the TACS TdT Fluorescein In Situ Apoptosis Detection kit (R&D Systems) according to the manufacturer's protocol and were visualized by a fluorescent microscope. MFI of TUNEL+ cells was determined per field using ImageJ and was normalized to DAPI-stained nuclei (n=3, six fields per well). Caspase activity was determined using the SensoLyte Homogeneous Rh110 Caspase-3/7 Assay kit (AnaSpec) according to the manufacturer's protocol. Cell viability was determined by 3-(4,5-dimethylthiazol-2-yl)-2,5-diphenyl tetrazolium bromide (MTT) activity as described previously. Functional grade Abs to mouse FasL (2 μg/ml; eBioscience) and Fas (5 μg/ml; BD PharMingen) and CA074ME (BIOMOL) were used.
# MES23.5 cells = assay: Cathepsin B inhibition and neurotoxicity, microglial supernatants on MES23.5 cells; assay type: cell-based; conditions: inhibitor 1 μM, N-α-syn 100 nM
# Procedure: MES 23.5 cells were cultured in 75-cm^2 flasks in DMEM/F12 with 15 mM HEPES (Invitrogen) containing N2 supplement (Invitrogen), 100 U/ml of penicillin, 100 μg/ml streptomycin, and 5% FBS. MES23.5 cells is a cell line derived using somatic cell fusion of rat embryonic mesencephalon cells and the murine neuroblastoma-glioma cell line N18TG2 that produce dopamine and express tyrosine hydroxylase (Crawford et al. (1992) J. Neuroscience 12:3392-3398). Cells were grown to 80% confluence then plated at a density of 10×10^4 cells on sterile glass coverslips. Microglia were plated in 6 well plates and incubated for 1 hour with or without 1 μM of cathepsin B inhibitors, CA-074 [cell impermeable] or CA-074 Me [cell permeable] (Sigma), in a 37° C., 5% CO2 incubator to inhibit residual cathepsin B expression (Gan et al. (2004) J. Biol. Chem., 279:5565-5572). […] MES 23.5 cell viability was assessed using the Live/Dead cytotoxicity assay (Invitrogen) as previously described. Live cells were distinguished by the uptake of calcein AM to acquire a green fluorescence [excitation/emission (ex/em) 495/515 nm], while dead cells acquired a red fluorescence (ex/em 495/635 nm) due to the uptake of ethidium homodimer-1 (EthD-1). Cell enumerations were performed using fluorescence microscopy (200× magnification, n=6 wells per group, 3 frames per well).
# TNF-α = assay: Cytometric bead array of T cells restimulated with antigen; assay type: cell-based, mouse; conditions: T cells from N-4YSyn-immunized donors restimulated in vitro
# Procedure: Triplicate co-cultures of antigen presenting cells (APC) and T cells from PBS, 4YSyn- and N-4YSyn-immunized mice were stimulated with 4YSyn or N-4YSyn. After 24 hours of culture, 50 μl samples were collected, centrifuged, and supernatants frozen at −80° C. until utilized. Frozen supernatants were thawed only once and analyzed using the BD Cytometric Bead Array Mouse Th1/Th2 Kit (BD Biosciences, San Jose, Calif.) according to the manufacturer's instructions.
# effector T cells = assay: Treg inhibition of CD3-mediated effector T cell proliferation; assay type: cell-based, mouse; conditions: Treg from FoxP3-GFP donors, ratio of 1:1
# Procedure: Seven days following treatment, mice were sacrificed and single cell suspensions were prepared from inguinal lymph nodes and spleens. CD4+ T cell populations from spleens and lymph nodes were enriched by negative selection with CD4-enrichment columns (R & D Systems) followed by CD25-PE positive selection with AutoMACS (Miltenyi Biotec). […] Proliferation and inhibition assays were performed as described. MPTP-intoxicated mice received an i.v. tail injection of 5×10^7 SPC or 1×10^6 Treg in 0.25 ml of HBSS.
# SPC (spleen cells) = assay: Antigen-specific 3H-thymidine proliferation of SPC from immunized mice; assay type: cell-based, mouse
# [1] = system: anti-CD3 stimulated T cells; assay: PI uptake cytotoxicity of anti-CD3 stimulated T cells (flow cytometry); assay type: cell-based, mouse; conditions: 24 hours
# Procedure: To assess α-Syn-mediated cytotoxicity, purified T cells were stimulated with anti-CD3 and cultured at a density of 1×10^6 cells/ml for 24 hours in media alone or in the presence of 4YSyn or N-4YSyn at concentrations of 1, 3, 10, or 30 μg/ml. Cells were stained with PI, washed and the percentages of PI^+ dead cells and MFI were analyzed by flow cytometry.
compound,measurement,setting,value
CCCNC(=O)[C@H]1O[C@@H]1C(=O)N[C@H](C(=O)N1CCC[C@H]1C(=O)OC)[C@@H](C)CC [CA-074 Me],diminution of active caspase-3+ cells,primary microglia,11.1±0.5%
same,protection of DA cells v. N-α-syn alone,MES23.5 cells,87%
N-4YSyn: peroxynitrite-nitrated recombinant His-tagged C-terminal 40 aa fragment of mouse α-Syn,TNF-α levels,TNF-α,26.0 ± 1.2 pg/mL
same,inhibition of effector T cell proliferation to anti-CD3 stimulation by Treg,effector T cells,20%
same,proliferative response of SPC to in vitro stimulation with the antigen,SPC (spleen cells); B6 mice immunized with N-4YSyn/PBS without adjuvant,significant lymphocyte proliferative response
same,proliferative response of SPC to in vitro stimulation with the antigen,SPC (spleen cells); B10.BR mice immunized in CFA/IFA,significant proliferative responses
same,% PI+ T cells,[1]; 1 μg/ml,15.9%
same,MFI of PI-stained T cells,[1]; 1 μg/ml,42.8
same,% PI+ T cells,[1]; 3 μg/ml,17.9%
same,MFI of PI-stained T cells,[1]; 3 μg/ml,58.7
same,% PI+ T cells,[1]; 10 μg/ml,47.8%
same,MFI of PI-stained T cells,[1]; 10 μg/ml,71.6
same,% PI+ T cells,[1]; 30 μg/ml,91.3%
same,MFI of PI-stained T cells,[1]; 30 μg/ml,106.1
